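Following 48 hours of exposure in 96-well plates, responses at five concentrations were used to interpolate endpoints linearly. GI50 marks 50% less growth. Definition used: TGI = concentration required for complete inhibition of growth.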
What was measured:
Assay in all cases: growth of human tumour cells (NCI), 48 h
[1] = tested on: SF-268 CNS
[2] = tested on: NCI/ADR-RES ovarian
[3] = tested on: RXF 393 renal
[4] = tested on: SF-295 CNS
[5] = tested on: SK-MEL-2 melanoma
[6] = tested on: CAKI-1 renal
[7] = tested on: IGROV1 ovarian
[8] = tested on: BT-549 breast

Structure (SMILES)	GI50 [1] [µM]	TGI [1] [µM]	GI50 [2] [µM]	TGI [2] [µM]	GI50 [3] [µM]	TGI [3] [µM]	GI50 [4] [µM]	TGI [4] [µM]	GI50 [5] [µM]	TGI [5] [µM]	GI50 [6] [µM]	TGI [6] [µM]	GI50 [7] [µM]	TGI [7] [µM]	GI50 [8] [µM]	TGI [8] [µM]
CN1C(=O)CNC(=O)[C@H](NC(=O)c2nc3ccccc3cc2O)CSSC[C@H]1C(=O)NCCc1nc2ccccc2cc1O	4.19	37.9	> 88.5	> 100	13.9	36	14.3	> 100	2.57	8.47	> 46.6	> 78.1	32	> 100	14.3	51.7
O=C1/C(=C/c2ccccc2Cl)N=C(c2ccccc2)N1Cc1ccco1	50.2	> 100	> 100	> 100	16.4	93	–	–	28.1	55.1	94.3	> 100	–	–	39.8	> 100
ClCCN(CCCl)c1ccc(-n2cnc3c(Cl)ncnc32)cc1	1.81	3.73	4.15	20.3	1.86	3.33	–	–	14	27.6	0.697	2.05	–	–	3.51	12.9
CC(=O)/C=C/C1=C(c2cc3ccccc3s2)c2ccccc2CC1	27.1	> 100	30.9	> 100	24.9	57.2	37	> 100	20	42.2	51.1	> 100	27.4	> 100	33.6	> 100
CCC(Sc1nnc2c3ccccc3n(CC)c2n1)C(=O)Nc1ccccc1OC (stereo not drawn)	> 100	> 100	> 100	> 100	64	> 100	> 100	> 100	> 100	> 100	0.76	5.32	> 93.8	> 100	> 100	> 100
COc1cc(CSc2nc3ccc(C)cc3c(=O)n2Cc2ccccc2)cc(OC)c1OC	5.01	> 100	1.51	14.6	2.29	9.75	–	–	4.05	43.1	2.48	> 100	3.47	> 100	7.07	77.5
COCCOC(=O)C1=C(C)NC2=C(C(=O)CC(c3ccccc3OC)C2)C1c1cccc(O)c1 (stereo not drawn)	15.8	53.4	35.9	> 100	14.1	36.4	11.5	35.2	10.1	26.7	4.43	31.3	9.54	52.4	11.7	37.5
COc1ccc(C(O)CNC(=O)c2ccccc2)cc1 (stereo not drawn)	–	> 100	–	> 100	–	> 100	–	> 100	–	> 100	–	> 100	–	> 100	–	> 100
CN1CCN(c2ccc3nc(-c4cc(C(C)(C)C)c(O)c(C(C)(C)C)c4)[nH]c3c2)CC1	2.62	7.14	5.48	20	1.72	3.52	1.83	3.66	2.38	5.49	1.75	3.49	3.65	12.6	2.23	6.43
Nc1cc(-c2ccccc2)ccc1O	65.5	> 100	45	> 100	> 100	> 100	55.2	> 100	> 100	> 100	17.9	79.9	> 100	> 100	79.3	> 100
COc1ccc2c(c1)CC[C@@H]1[C@@H]2CC[C@@]2(C)[C@H]1CC1(CCCCC1)[C@@H]2O	12	26.6	14.8	30.7	4.68	29.2	9.05	23.1	20.4	41.6	18.2	33.9	30.9	80.7	–	–
COc1ccc(-c2n[nH]nc2-c2csc3ccccc23)cc1OC	3.69	41.8	2.39	23.2	2.11	6.71	2.33	11.7	1.44	7.65	3.69	34.2	4.21	> 100	2.17	12.5
C#C[C@]1(O)CC[C@H]2[C@@H]3CC=C4c5sc(N=C(N)N)nc5CC[C@]4(C)[C@H]3CC[C@@]21C	0.959	2.75	1.44	3.59	0.141	0.555	0.188	0.452	0.787	2.36	0.615	1.82	1.03	2.41	1.08	2.49
O=C1OC(c2ccc(O)c(-c3ccccc3)c2)(c2ccc(O)c(-c3ccccc3)c2)c2c(Cl)c(Cl)c(Cl)c(Cl)c21	–	> 100	–	> 100	–	> 100	–	> 100	–	> 100	–	> 100	–	> 100	–	> 100
COc1ccc2[nH]cc(-c3nc(-c4cn(C)c5ccncc45)cs3)c2c1	1.91	3.61	–	–	1.83	3.34	12.3	25.7	15.8	30.1	1.84	3.35	1.93	3.54	1.79	3.4
COC(=O)c1ccccc1NC(=O)/C(=N\NC(C)(C)C)C(C#N)c1nc(-c2ccc([N+](=O)[O-])cc2)cs1 (stereo not drawn)	–	> 100	–	> 100	–	> 100	–	> 100	–	> 100	–	> 100	–	> 100	–	> 100
CCC[C@H](N[C@@H]1CCc2cc(F)cc(F)c2C1)C(=O)Nc1cn(C(C)(C)CNCC(C)(C)C)cn1	20.4	> 100	15.3	> 81	6.12	21.1	15.4	42.5	16.1	35.4	5.94	29	28.6	> 100	11.5	37.8

Structure (SMILES)	GI50 [1] [µM]	TGI [1] [µM]	GI50 [2] [µM]	TGI [2] [µM]	GI50 [3] [µM]	TGI [3] [µM]	GI50 [4] [µM]	TGI [4] [µM]	GI50 [5] [µM]	TGI [5] [µM]	GI50 [6] [µM]	TGI [6] [µM]	GI50 [7] [µM]	TGI [7] [µM]	GI50 [8] [µM]	TGI [8] [µM]
CO[C@@H]1[C@@H](OC2OC(C)C(OC3CC(C)(O)C(OC(=O)CC(C)C)C(C)O3)C(N(C)C)C2O)[C@@H](CC=O)C[C@@H](C)C(=O)/C=C/C2O[C@H]2C[C@@H](C)OC(=O)C[C@H]1OC(C)=O (stereo partly drawn)	–	> 100	–	98.9	–	64.7	–	48.2	–	43.7	–	–	–	61	–	40.5
CC(C)(C)c1ccc([I+]c2ccc(C(C)(C)C)cc2)cc1	1.93	7.53	21.5	89.5	1.99	5.52	2.22	5.28	1.51	3.86	8.3	20.8	2.33	12.2	–	–
C=CC1CC12C(=O)C1OC2(C)C2C(=O)c3c(ccc4c3ccc3ccccc34)C(=O)C12 (stereo not drawn)	36.2	> 100	74.9	> 100	25	83	–	–	> 100	> 100	19.1	58.6	–	–	58.9	> 100
O=C1c2ccccc2C(=O)N1c1ccc(S(=O)(=O)Nc2ncccn2)cc1	> 100	> 100	> 100	> 100	> 100	> 100	> 100	> 100	> 100	> 100	> 100	> 100	> 100	> 100	> 100	> 100
CCCCCCCCCCCCCCCC(=O)OCC(O)C1OC(=O)C(O)=C1O (stereo not drawn)	–	60.4	–	79.8	–	86.8	–	40.4	–	> 100	–	96.6	–	84.5	–	–
CC1(C)N=C(N)N=C(N)N1c1ccc(F)c(C(F)(F)F)c1	0.158	> 100	> 83.6	> 100	> 31.5	> 100	0.408	–	> 27.9	> 100	4.92	> 93.1	0.53	> 100	1.96	> 87.9
CC(=O)O[C@@H]1CO[C@H]2O[C@H]3[C@@H](C(C=O)=C[C@H](O)[C@@H]4C5=C(C(C)C)CC[C@]5(C)CC[C@@]34C)[C@@]2(O)C1=O	–	0.667	–	1.06	–	0.362	–	3.98	–	0.596	–	0.486	–	0.714	–	0.353
CCCN(CCC)c1ccc(CO)c(C)c1	63.7	> 100	> 100	> 100	22.2	> 100	> 100	> 100	25.7	78	38.8	> 100	57	> 100	47.6	> 100
CCc1c2c(nc3cc4c(cc13)OCO4)-c1cc3c(c(=O)n1C2)COC(=O)[C@@]3(CC)OC(=O)CN	< 0.01	–	< 0.01	< 0.0104	< 0.01	< 0.0324	< 0.01	< 0.0166	0.0954	0.998	< 0.01	–	–	–	< 0.01	< 0.0366
[Cu+2].[O-]c1ccc2ccccc2c1N=Nc1ccccc1.[O-]c1ccc2ccccc2c1N=Nc1ccccc1	> 100	> 100	–	> 100	–	> 100	> 100	> 100	–	> 100	–	> 100	–	> 100	–	> 100
CCN(CC)c1ccc2c(c1)Oc1nc(N)c(C#N)c(N)c1C2Sc1ccc(SC)cc1 (stereo not drawn)	1.69	3.44	2.39	6.13	1.66	3.31	1.67	3.12	2.48	5.51	–	–	1.57	3.37	1.42	2.78
COc1cnc2c(c1)C(=O)c1c-2n(CCCn2ccnc2)c(=O)c2cc(Cl)ccc12	0.0343	> 100	0.03	12.5	0.0407	0.235	0.0251	0.0794	0.574	14.3	0.0255	> 100	–	–	0.146	> 100
COC(CCP(=O)(c1ccccc1)c1ccccc1)(C(=O)c1ccccc1)c1ccccc1 (stereo not drawn)	10.2	21.9	4.93	20.9	0.213	0.917	0.135	1.49	–	–	2.95	12.2	8.06	25.4	4.55	15.6
CN1CCN(c2ccc3c4c(cccc24)C(=O)N(CCN2CCN(CCCN4CCN(CCN5C(=O)c6cccc7c(N8CCN(C)CC8)ccc(c67)C5=O)CC4)CC2)C3=O)CC1	4.57	47.5	4.2	10.3	5.4	12	5.75	13.7	–	–	8.21	16.8	–	–	9.92	19.7
COc1cccc(/C=N\Nc2ccc([N+](=O)[O-])cn2)c1O	2.58	23.8	2.43	28	2.79	12.7	–	–	9.69	54.4	1.74	4.14	1.91	13.5	4.47	30
O=C1Nc2ccccc2C1Cc1ccccc1 (stereo not drawn)	–	> 100	–	–	–	–	–	–	–	> 100	–	> 100	–	> 100	–	–
